System: influenza virus A/California/7/09 (H1N1)pdm09
Conditions: cited from earlier work

Structure (SMILES)	ED50 (50% effective concentration) [µM]
NC(=O)c1ncn([C@@H]2O[C@H](CO)[C@@H](O)[C@H]2O)n1 [Ribavirin]	24.6

System: influenza virus A/California/7/09 (H1N1)pdm09
Type: cell-based, influenza virus A/California/07/09 (H1N1)pdm09
Conditions: not given

Structure (SMILES)	Antiviral (virus-inhibiting) activity, in words
CC1(C)[C@@H]2CC[C@@]1(C)/C(=N/CCC/N=C1\C[C@H]3CC[C@]1(C)C3(C)C)C2 [Compound 2a, N^1E,N^3E-N^1,N^3-bis((1R,2R,4R)-1,7,7-trimethylbicyclo[2.2.1]heptan-2-ylidene)propane-1,3-diamine]	highest antiviral activity
CC1(C)[C@@H]2CC[C@@]1(C)/C(=N/CCCCCCC/N=C1\C[C@H]3CC[C@]1(C)C3(C)C)C2 [Compound 2c, N^1E,N^7E-N^1,N^7-bis((1R,2R,4R)-1,7,7-trimethylbicyclo[2.2.1]heptan-2-ylidene)heptane-1,7-diamine]	highest antiviral activity
CC1(C)[C@@H]2CC[C@@]1(C)/C(=N/c1ccc(Cc3ccc(/N=C4\C[C@H]5CC[C@]4(C)C5(C)C)cc3)cc1)C2 [Compound 2f, (E)-N-((1R,2R,4R)-1,7,7-trimethylbicyclo[2.2.1]heptan-2-ylidene)-4-(4-((E)-((1R,2R,4R)-1,7,7-trimethylbicyclo[2.2.1]heptan-2-ylidene)amino)benzyl)aniline]	did not exhibit high antiviral activity
CC1(C)[C@@H]2CC[C@@]1(C)/C(=N/c1ccc(Cc3ccc(N)cc3)cc1)C2 [Compound 5f, (E)-4-(4-aminobenzyl)-N-((1R,2R,4R)-1,7,7-trimethylbicyclo[2.2.1]heptan-2-ylidene)aniline]	did not exhibit high antiviral activity
CC1(C)C2CC[C@@]1(C)C(=O)C2 [Compound 1, (1R)-(+)-camphor, reference compound]	does not possess a virus-inhibiting activity
CC1(C)[C@@H]2CC[C@@]1(C)[C@H](Nc1ccc(Oc3ccc(N[C@@H]4C[C@H]5CC[C@]4(C)C5(C)C)cc3)cc1)C2 [Compound 3g, (1R,2R,4R)-1,7,7-trimethyl-N-(4-(4-((1R,2R,4R)-1,7,7-trimethylbicyclo[2.2.1]heptan-2-ylamino)phenoxy)phenyl)bicyclo[2.2.1]heptan-2-amine]	did not exhibit high antiviral activity
CC1(C)[C@@H]2CC[C@@]1(C)/C(=N/CCCCCC/N=C1\C[C@H]3CC[C@]1(C)C3(C)C)C2 [Compound 2b, N^1E,N^6E-N^1,N^6-bis((1R,2R,4R)-1,7,7-trimethylbicyclo[2.2.1]heptan-2-ylidene)hexane-1,6-diamine]	highest antiviral activity
CC1(C)[C@@H]2CC[C@@]1(C)/C(=N/CCCCCCCCCCCC/N=C1\C[C@H]3CC[C@]1(C)C3(C)C)C2 [Compound 2e, N^1E,N^12E-N^1,N^12-bis((1R,2R,4R)-1,7,7-trimethylbicyclo[2.2.1]heptan-2-ylidene)dodecane-1,12-diamine]	highest antiviral activity

From PMC7126937 (Bioorganic & Medicinal Chemistry, 2014)
